Legend:
TFEB = TFEB translocation assay in HeLa cells (nuclear to cytoplasmic TFEB ratio, high-content imaging); type: cell-based; conditions: Homo sapiens, HeLa, 1.5 h, 90 mins incubation at 37° C., ratio of nuclear to cytoplasmic TFEB
Method: Example B2. TFEB Translocation Assay
Rabbit TFEB antibody, Cell Signaling Technology #4240S
PFA 16% MeOH-free, Election Microscopy Sciences #50-980-487
HCS CellMask Deep Red, ThermoFisher Scientific #H32721
Plates: Perkin Elmer Phenoplate #605730 black optically clear, tissue culture treated 384-well plate
Example B2.2 Method, Day 1: Cells Seeded in 384WP
Cells were seeded in the afternoon. The outer one row of the plate was not used to avoid outer well edge effects.
HeLa cells were detached using trypsin, and the cells were counted using a cell counter.
4000 HeLa cells were seeded per well in […] growth media (DMEM with 10% FBS, 1 mM sodium pyruvate and Pen-Strep).
Example B2.3 Method, Day 2: Assay with TRPML1 Compounds+Staining
Compounds were added to cells using a Tecan D300e dispenser.
Cells were incubated for 90 mins at 37° C. with the compounds (compound range: 80 nM-[…] (2× step dilution—8 dilution steps, 3 replicates per condition)
The cells were fixed by adding 16.5 μL of 16% PFA (4% final) and incubating for 15 min at room temperature.
The cells were washed with 3× in PBS-TX (PBS+0.1% Triton X-100)−1×100 μL followed by 2×50 μL.
The cells were blocked and permeabilized in 30 μL of blocking buffer (PBS-TX+5% goat serum) for 1 h.
The cells were incubated with TFEB antibody (1:200, CST 4240S) in 30 μL blocking buffer overnight at 4° C. The plates were kept damp to avoid evaporation.
Example B2.4 Method, Day 3: Staining+Imaging
The cells were washed 3× in PBS-TX—3×100 μL with a Biotek EL406 washer.
The cells were incubated with Goat anti-Rb Alexa-Fluor 488 (1:2000), cell mask (1:10,000) and Hoechst (1:10,000) in 30 μL blocking buffer for 1 h at room temperature. The solution was dispensed using a 5 μL peristaltic cassette (EL406).
The cells were washed 3× in PBS-TX—3×100 μL with a EL406 washer, then […] PBS was dispensed using a 5 μL peristaltic cassette (EL406).
The cells were imaged on an Operetta CLS High-content imaging system using a 20× water immersion objective (NA 1.0) the same day.
Image analysis was performed using Harmony V4.9 (Perkin Elmer). Briefly, nuclei were segmented from background-corrected images using Hoechst intensity, and cell body segmented using HCS CellMask DeepRed. A sliding parabola filter was applied to the AlexaFluor 488 channel (TFEB), before sum pixel intensity in the nuclear and cytoplasmic regions was calculated. A ratio of nuclear to cytoplasmic TFEB was used to define TFEB translocation from the cytosolic to nuclear compartment. The EC50 values derived by fitting the data to a sigmoidal dose response curve using Prism 9 (Graphpad).

TRPML1 = TRPML1 (Homo sapiens, UniProt Q9GZU1); assay: Calcium flux in HEK293 overexpressing TRPML1 plasma membrane variant (FLIPR, Calcium 6 dye); type: cell-based; conditions: HEK293/TRPML1-PM clone A5 cells; 4-parameter logistic fit; read-out: TRPML1 calcium flux (FLIPR) dose response: EC50
Sequence of TRPML1 (Q9GZU1 17-572 limits assumed): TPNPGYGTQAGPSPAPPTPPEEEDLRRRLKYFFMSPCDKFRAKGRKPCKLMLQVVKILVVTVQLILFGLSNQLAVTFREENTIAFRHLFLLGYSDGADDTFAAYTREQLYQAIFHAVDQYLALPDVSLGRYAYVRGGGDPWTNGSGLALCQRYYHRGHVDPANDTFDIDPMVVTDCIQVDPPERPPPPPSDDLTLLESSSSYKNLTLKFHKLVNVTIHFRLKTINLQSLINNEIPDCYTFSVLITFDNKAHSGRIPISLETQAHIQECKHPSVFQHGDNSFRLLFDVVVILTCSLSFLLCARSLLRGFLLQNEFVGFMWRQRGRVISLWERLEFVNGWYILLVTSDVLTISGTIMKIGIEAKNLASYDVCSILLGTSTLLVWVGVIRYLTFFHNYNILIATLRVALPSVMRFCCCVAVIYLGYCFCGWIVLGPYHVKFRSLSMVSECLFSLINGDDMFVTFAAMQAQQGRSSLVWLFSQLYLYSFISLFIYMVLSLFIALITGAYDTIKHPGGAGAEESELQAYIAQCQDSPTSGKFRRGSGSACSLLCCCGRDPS
Excerpt: Example B1. Calcium Flux in HEK293 Overexpressing TRPML1 Plasma Membrane Variant—Calcium 6 Dye
Cells: HEK293/TRPML1-PM clone A5, clonal cell line containing mutant TRPML1 (both N- and C-terminal dileucine targeting motifs deleted) that localizes to the plasma membrane
Plates: Perkin Elmer Viewplate cat. #6007460, black optically clear, tissue culture treated 384-well plate
Calcium dye: Molecular Devices FLIPR Calcium 6 Assay Kit, cat. #R8190 or Fluo-4 Direct from Thermo Fisher, cat. #F10471
Tips: Molecular Devices 384-well FLIPR Tetra black tips, cat. #9000-0764 Example B1.2 Method
HEK293/TRPML1-PM clone A5 cells were trypsinized from flasks, counted, then diluted in media to 15,000 cells per 25 μL, and seeded into a black, 384-well viewplate, and cultured overnight.
One vial of calcium 6 dye was diluted with 10 mL of assay buffer (HBSS+20 mM HEPES pH 7.4) and 25 μL of the dilution was added per well to the cells.
After incubating for 2 hours at 37° C., the plate was moved to the FLIPR in the read position.
The compounds were diluted in EMEM with 0.125% FBS to 5× concentration and loaded in a 384-well plate according to the desired plate map for the assay, including DMSO alone and carbachol controls, then the plate was moved to the FLIPR in the source 2 position.
A box of tips was placed in the source 1 position within the FLIPR to complete the assay set up.
Once the run was started, an initial baseline fluorescent measurement was performed for 10 seconds (470-495 nm excitation and 515-575 nm emission) prior to adding the compounds.
12.5 μL of 5× test compound, DMSO alone, or carbachol were added via the FLIPR and real-time fluorescence measurements were performed for an additional 170 seconds with 1 read per second.
The data was normalized to baseline by calculating maximum fluorescence minus minimum fluorescence and plotted as response (fold) over the baseline versus log ([…] concentration). The EC50 was determined using a 4-parameter logistic curve fit in Graphpad Prism 9.

For CN(c1ccccc1NS(=O)(=O)c1ccc(S(=O)(=O)N(C)C)cc1)C1CCOC1 (stereo not shown) [Compound 18, N1,N1-dimethyl-N4-(2-(methyl(tetrahydrofuran-3-yl)amino)phenyl)benzene-1,4-disulfonamide], the EC50 (TFEB) was > 9900 nM and the EC50 (TRPML1) was 1140 nM.
CN(c1c(C#N)cccc1NS(=O)(=O)c1ccc(S(=O)(=O)N(C)C)cc1)C1CCCCC1 [Compound 91, N1-(3-cyano-2-(cyclohexyl(methyl)amino)phenyl)-N4,N4-dimethylbenzene-1,4-disulfonamide] was tested, and the EC50 (TFEB) was 199 nM and the EC50 (TRPML1) was 77.2 nM.
CN(Cc1ccsc1)c1ccccc1NS(=O)(=O)c1ccc(S(=O)(=O)N(C)C)cc1 [Compound 13, N1,N1-dimethyl-N4-(2-(methyl(thiophen-3-ylmethyl)amino)phenyl)benzene-1,4-disulfonamide] gave an EC50 (TFEB) of 1350 nM and an EC50 (TRPML1) of 670 nM.
With CN(C)S(=O)(=O)c1ccc(S(=O)(=O)Nc2ccccc2N(C)[C@H]2CC[C@@H](C)CC2)cc1 [Compound 30, N1,N1-dimethyl-N4-(2-(methyl((1s,4s)-4-methylcyclohexyl)amino)phenyl)benzene-1,4-disulfonamide] the EC50 (TFEB) was 1170 nM and the EC50 (TRPML1) was 360 nM.
With CN(CCC1COC1)c1ccccc1NS(=O)(=O)c1ccc(S(=O)(=O)N(C)C)cc1 [Compound 62, N1,N1-dimethyl-N4-(2-(methyl(2-(oxetan-3-yl)ethyl)amino)phenyl)benzene-1,4-disulfonamide] the EC50 (TRPML1) was > 30000 nM.
Work on CN(c1cccc(C(F)(F)F)c1NS(=O)(=O)c1ccc(S(=O)(=O)N(C)C)cc1)C1CCCCC1 [Compound 92, N1-(2-(cyclohexyl(methyl)amino)-6-(trifluoromethyl)phenyl)-N4,N4-dimethylbenzene-1,4-disulfonamide] yielded an EC50 (TRPML1) of 7440 nM.
In the case of CN(c1cccc(C#N)c1NS(=O)(=O)c1ccc(S(=O)(=O)N(C)C)cc1)C1CCCCC1 [Compound 86, N1-(2-cyano-6-(cyclohexyl(methyl)amino)phenyl)-N4,N4-dimethylbenzene-1,4-disulfonamide], the EC50 (TRPML1) is reported as > 30000 nM.
Compound Cc1cc(CN(C)c2ccccc2NS(=O)(=O)c2ccc(S(=O)(=O)N(C)C)cc2)cc(C)n1 [Compound 48, N1-(2-(((2,6-dimethylpyridin-4-yl)methyl)(methyl)amino)phenyl)-N4,N4-dimethylbenzene-1,4-disulfonamide] has an EC50 (TRPML1) of 7450 nM.
With CN(CC1CCC(C)(C)OC1)c1ccccc1NS(=O)(=O)c1ccc(S(=O)(=O)N(C)C)cc1 (stereo not shown) [Compound 32, N1-(2-(((6,6-dimethyltetrahydro-2H-pyran-3-yl)methyl)(methyl)amino)phenyl)-N4,N4-dimethylbenzene-1,4-disulfonamide] the EC50 (TRPML1) was 810 nM.
Work on CC(C)n1cnc(CN(C)c2ccccc2NS(=O)(=O)c2ccc(S(=O)(=O)N(C)C)cc2)c1 [Compound 31, N1-(2-(((1-isopropyl-1H-imidazol-4-yl)methyl)(methyl)amino)phenyl)-N4,N4-dimethylbenzene-1,4-disulfonamide] yielded an EC50 (TRPML1) of 8980 nM.
With CN(Cc1cn2c(n1)CCC2)c1ccccc1NS(=O)(=O)c1ccc(S(=O)(=O)N(C)C)cc1 [Compound 83, N1-(2-(((6,7-dihydro-5H-pyrrolo[1,2-a]imidazol-2-yl)methyl)(methyl)amino)phenyl)-N4,N4-dimethylbenzene-1,4-disulfonamide] the EC50 (TRPML1) was > 30000 nM.
CN(Cc1ccc(F)cn1)c1ccccc1NS(=O)(=O)c1ccc(S(=O)(=O)N(C)C)cc1 [Compound 43, N1-(2-(((5-fluoropyridin-2-yl)methyl)(methyl)amino)phenyl)-N4,N4-dimethylbenzene-1,4-disulfonamide] gave an EC50 (TRPML1) of 880 nM.
Compound CN(c1cccc(Cl)c1NS(=O)(=O)c1ccc(S(=O)(=O)N(C)C)cc1)C1CCCCC1 [Compound 52, N1-(2-chloro-6-(cyclohexyl(methyl)amino)phenyl)-N4,N4-dimethylbenzene-1,4-disulfonamide] has an EC50 (TRPML1) of 5780 nM.
With CCN(C)c1ccccc1NS(=O)(=O)c1ccc(S(=O)(=O)N(C)C)cc1 [Compound 9, N1-(2-(ethyl(methyl)amino)phenyl)-N4,N4-dimethylbenzene-1,4-disulfonamide] the EC50 (TRPML1) was 3460 nM.
COCCCN(C)c1ccccc1NS(=O)(=O)c1ccc(S(=O)(=O)N(C)C)cc1 [Compound 34, N1-(2-((3-methoxypropyl)(methyl)amino)phenyl)-N4,N4-dimethylbenzene-1,4-disulfonamide] gave an EC50 (TRPML1) of 3200 nM.
CN(Cc1cscn1)c1ccccc1NS(=O)(=O)c1ccc(S(=O)(=O)N(C)C)cc1 [Compound 45, N1,N1-dimethyl-N4-(2-(methyl(thiazol-4-ylmethyl)amino)phenyl)benzene-1,4-disulfonamide] was tested, and the EC50 (TRPML1) was 2060 nM.
With CC(C)CN(C)c1ccccc1NS(=O)(=O)c1ccc(S(=O)(=O)N(C)C)cc1 [Compound 7, N1-(2-(isobutyl(methyl)amino)phenyl)-N4,N4-dimethylbenzene-1,4-disulfonamide] the EC50 (TRPML1) was 510 nM.
Cc1ncsc1CN(C)c1ccccc1NS(=O)(=O)c1ccc(S(=O)(=O)N(C)C)cc1 [Compound 51, N1,N1-dimethyl-N4-(2-(methyl((4-methylthiazol-5-yl)methyl)amino)phenyl)benzene-1,4-disulfonamide] showed an EC50 (TRPML1) of 3050 nM.
Work on Cc1cnccc1CN(C)c1ccccc1NS(=O)(=O)c1ccc(S(=O)(=O)N(C)C)cc1 [Compound 58, N1,N1-dimethyl-N4-(2-(methyl((3-methylpyridin-4-yl)methyl)amino)phenyl)benzene-1,4-disulfonamide] yielded an EC50 (TRPML1) of 6880 nM.
CN(CC1CCOC1)c1ccccc1NS(=O)(=O)c1ccc(S(=O)(=O)N(C)C)cc1 (stereo not shown) [Compound 112, N1,N1-dimethyl-N4-(2-(methyl((tetrahydrofuran-3-yl)methyl)amino)phenyl)benzene-1,4-disulfonamide] was tested, and the EC50 (TRPML1) was 3720 nM.
CN(c1c(Cl)cccc1NS(=O)(=O)c1ccc(S(=O)(=O)N(C)C)cc1)C1CCCCC1 [Compound 38, N1-(3-chloro-2-(cyclohexyl(methyl)amino)phenyl)-N4,N4-dimethylbenzene-1,4-disulfonamide] was tested, and the EC50 (TRPML1) was 240 nM.
CN(c1cc(C(F)(F)F)ccc1NS(=O)(=O)c1ccc(S(=O)(=O)N(C)C)cc1)C1CCCCC1 [Compound 116, N1-(2-(cyclohexyl(methyl)amino)-4-(trifluoromethyl)phenyl)-N4,N4-dimethylbenzene-1,4-disulfonamide] showed an EC50 (TRPML1) of 1030 nM.
Compound CCN(c1ccccc1NS(=O)(=O)c1ccc(S(=O)(=O)N(C)C)cc1)C1CCCCC1 [Compound 60, N1-(2-(cyclohexyl(ethyl)amino)phenyl)-N4,N4-dimethylbenzene-1,4-disulfonamide] has an EC50 (TRPML1) of 86.7 nM.
For CN(CC1CCOCC1)c1ccccc1NS(=O)(=O)c1ccc(S(=O)(=O)N(C)C)cc1 [Compound 11, N1,N1-dimethyl-N4-(2-(methyl((tetrahydro-2H-pyran-4-yl)methyl)amino)phenyl)benzene-1,4-disulfonamide], the EC50 (TRPML1) was 2100 nM.

— patent US20250340510A1, “Substituted Phenylbenzenesulfonamide Derivatives and Uses Thereof” (Nine Square Therapeutics Corporation, priority 2022, published 2025)
